Laboratory results as given in US12472180B2, “Combinations for treatment of NAFLD/NASH and related diseases” (Pfizer Inc., priority 2020, dated 2025).
Structures can show the parent of a compound that is named as a salt.

Legend:
[1] = tested on: Western diet fed Sprague Dawley rats; experiment: Hepatic triglyceride (steatosis) in Western diet fed rats; assay type: in vivo, rat; conditions: or both, Day 28
Experimental: (§1) A randomized, vehicle-controlled, 8-parallel arm study was conducted in male Sprague-Dawley rats (Charles River (Boston, MA)) to obtain circulating and hepatic TG levels. Standard laboratory conditions were used to house 96 rats (˜200 g); they were double housed and kept under 12:12-hour reverse light-dark schedule (lights off at 8:00 AM). Rats were randomized into chow or Western diet groups and dose groups upon arrival and were given a 14-day lead-in period on either standard rat chow or Western diet prior to the start of the study. Standard Laboratory Rodent chow diet, 5053, was from LabDiet (PMI, St Louis, Missouri). Western Diet, D12079Bi, was from Research Diets (New Brunswick, NJ).
(§2) For these studies, vehicle was prepared to make a 0.5% (wt/volume) of methyl cellulose (MC, Sigma Aldrich; 274429) in deionized water.
On the last day of the study (Day 28), rats were sacrificed for tissue collection after a 4 hour fast, 2 hours post-dose: two hours post-dose, blood for determining plasma analytes was collected via lateral tail vein and then the animals were sacrificed by CO2 asphyxiation. Blood was transferred to BD Microtainer tubes coated with K2EDTA (PN365974), centrifuged at 4° C. and the plasma transferred to a 96-well microtitre plate and stored at −20° C. Livers were rapidly removed, freeze-clamped in a Wollenberg clamp pre-cooled in liquid N2 individually wrapped in aluminum foil and subsequently stored at −80° C.
Tissue pulverization: Frozen livers were rapidly pulverized on an aluminum block cooled in liquid N2, ensuring the tissue remained frozen throughout the pulverization. The pulverized tissues were transferred and stored in 7 mL polypropylene conical tubes at −80° C. until analysis.
Extraction for hepatic triglyceride: Approximately 50 to 100 mg of pulverized tissue was added to a 2 mL lysing matrix D tube (MP Bio) containing 800 μL ice cold 1:1 CHCl3:MEOH. Samples were immediately extracted at 4° C. using Qiagen Tissue Lyser II (Qiagen Cat No. 85300) for 4 minutes at 30 Hz. The homogenate was then transferred to 13×100 mm glass tubes and placed on ice. The lysis tubes were then rinsed with 800 μL of 1:1 CHCl3:MeOH, vortexed for 30 seconds and added to the 13×100 mm glass tubes. While on ice, 2.4 ml of 100% CHCl3 was added to all glass vials to bring the ratio of CHCl3:MeOH to 4:2. Samples were then placed in the −20° C. freezer overnight. On the following day, 1.75 mL 1M KCl H2O was added to bring the ratio to 4:2:1.75 ratio CHCl3:MeOH:H2O. Samples were then vortexed for 30 seconds and centrifuged at 1500 rpm×15 min., at 4° C. After centrifugation, the organic phase was transferred to a fresh 13×100 mm extraction tube, dried down at 37° C. under N2 and re-suspended in 750 μL CHCl3. […]

[2] = tested on: αSMA and COL1A1; experiment: Hepatic fibrogenesis gene expression in CDAHFD fed rats (qPCR); assay type: in vivo, rat; conditions: A 5 mg/kg, D 30 mg/kg twice daily, 6 weeks
Excerpt: Standard laboratory conditions were used to house 60 rats (˜200 g); they were double housed and kept under 12:12-hour reverse light-dark schedule (lights off at 8:00 AM). Rats were fed choline deficient and high fat diet (CDAHFD) beginning 6-weeks prior to initiation of the study. […] Animals (n=12) remaining on normal chow throughout the study and administered twice-daily vehicle were used as a control group. Blood samples were collected prior to starting compound administration and 3- and 6-week post compound administration for the assessment of circulating markers. Shearwave elastography (Aixplorer Ultimate imager, Supersoinc imagine) measurements were made at Week −3, Week 0 (prior to 1st dose), Week 3 and Week 6 to assess inflammation and fibrosis progression over time. Histology was assessed following 6-weeks of drug administration which corresponded to 12 weeks on the CDAHFD. Results are provided as an average of animals per each dosing group.
Following the 12-weeks on CDAHFD, the animals were sacrificed by CO2 asphyxiation. The right lateral, medial and left lateral lobes of the liver were harvested. Sections were taken from the left lateral, right medial and right lateral lobes and fixed in formalin and processed to paraffin blocks per animal. One section of left lateral lobe per animal was cryopreserved in optimal cutting temperature (OCT) compound. The remainder of the liver from each animal was frozen and rapidly pulverized on an aluminum block cooled in liquid N2, ensuring the tissue remained frozen throughout the pulverization. The pulverized tissue was transferred and stored at −80° C. until analysis. A portion of the pulverized liver sample from each animal was processed and analyzed for gene expression markers of fibrogenesis. Rat taqman probes against αSMA and COL1A1 were all assessed using Actb as housekeeping gene on qPCR.

[3] = tested on: SREBP-1; experiment: Nuclear SREBP-1 localization in liver of Western diet fed rats (Western blot); assay type: in vivo, rat; conditions: high dose monotherapy (A 10 mg/kg QD; D 30 mg/kg BID); pooled liver samples
Experimental: as §1, with “NJ). […]” for “NJ).”
Nuclear and Membrane fractions were prepared by ultracentrifugation using standard methods from a portion of the pulverized liver samples, that were pooled per treatment group. Samples from the nuclear extract and the membrane fractions were analyzed by Western blotting for SREBP1. […] Nuclear SREBP1 levels were quantified using relative units and normalized to Histone 2B to control for sample loss during the nuclear fractionation and gel loading.

[4] = tested on: ACC1, FASN, SCD1, PCSK9 and SREBP-1c; experiment: Hepatic lipogenic gene expression in Western diet fed rats (qPCR); assay type: in vivo, rat; conditions: Compound A: ACC1, FASN (high dose only), SCD, but not PCSK9 and SREBP1
Experimental: as §1
On the last day of the study (Day 28), rats were sacrificed for tissue collection after a 4 hour fast, 2 hours post-dose: two hours post-dose, blood for determining plasma analytes was collected via lateral tail vein and then the animals were sacrificed by CO2 asphyxiation. Blood was transferred to BD Microtainer tubes coated with K2EDTA (PN365974), centrifuged at 4° C. and the plasma transferred to a 96-well microtitre plate and stored at −20° C. […]
Another portion of the pulverized liver was processed and analyzed for lipogenic gene expression. Rat taqman probes against ACC1, FASN, SCD1, PCSK9 and SREBP-1c were all assessed using Actb as housekeeping gene on qPCR.

[5] = tested on: Western diet fed Sprague Dawley rats; experiment: Plasma triglycerides (fed and fasted) in Western diet fed Sprague Dawley rats; assay type: in vivo, rat; conditions: 4 hour fast
Experimental: as §1, §2
Fed plasma analytes: Blood for determining fed plasma TG concentrations was collected 2 hours post dose (2 hours into the dark cycle) via lateral tail vein, transferred to BD Microtainer tubes coated with dipotassium ethylenediaminetetraacetic acid (K2EDTA) (PN365974), and centrifuged at 4° C. The resulting plasma samples were then analyzed on a Siemens Chemistry XPT clinical analyzer (Malven, PA) using Siemens triglycerides_2 assay reagents (ref 10335892).
Fasted plasma analytes: Blood for determining fasted plasma TG was collected after a 4 hour fast, 2 hours post-dose (2 hours into the dark cycle) via lateral tail vein, transferred to BD Microtainer tubes coated with K2EDTA (PN365974), and centrifuged at 4° C. The resulting plasma samples were then analyzed on a Siemens Chemistry XPT clinical analyzer (Malven, PA) using Siemens triglycerides 2 assay reagents (ref 10335892).

[6] = Thermodynamic stability of crystalline forms versus water activity; assay type: physicochemical; conditions: ambient temperature; about 0.2 = 20% RH
[7] = high dose: A 10 mg/kg QD, D 30 mg/kg BID
[8] = low dose: A 1 mg/kg QD, D 5 mg/kg BID

Row | Compound | reduction in steatosis (hepatic triglyceride), relative to vehicle administered Western diet fed rats [1, 7] | reduction in steatosis (hepatic triglyceride), relative to vehicle administered Western diet fed rats [1, 8] | hepatic COL1A1 gene expression [2] | hepatic αSMA gene expression [2] | nuclear SREBP-1 localization relative to vehicle treated Western diet fed rats [3] | hepatic lipogenic gene expression (ACC1, FASN, SCD1, SREBP-1c, PCSK9) relative to Western diet fed vehicle treated animals [4] | increase in fasted plasma TG, relative to vehicle administered Western diet fed rats ([5]; high dose: Compound A 10 mg/kg QD monotherapy) | increase in fasted plasma TG, relative to vehicle administered Western diet fed rats ([5]; low dose: Compound A 1 mg/kg QD monotherapy) | water activity at which the form is thermodynamically stable [6] | reduction of fasted plasma TG, relative to vehicle administered Western diet fed rats ([5]; high dose: Compound D 30 mg/kg BID monotherapy) | reduction of fasted plasma TG, relative to vehicle administered Western diet fed rats ([5]; low dose: Compound D 5 mg/kg BID monotherapy)
1 | COc1cc(C(=O)N2CCC3(CC2)CC(=O)c2c(cnn2C(C)C)C3)cc(-c2ccc(C(=O)O)cc2)n1 [Compound A, 4-(4-(1-isopropyl-7-oxo-1,4,6,7-tetrahydrospiro[indazole-5,4′-piperidine]-1′-carbonyl)-6-methoxypyridin-2-yl)benzoic acid] | 53% | 36% | reduced hepatic αSMA and COL1A1 gene expression | reduced hepatic αSMA and COL1A1 gene expression | increased nuclear localization of SREBP-1 | trended to further increase | 1.7 fold | 2.4 fold |  |  | 
2 | COc1cc(C(=O)N2CCC3(CC2)CC(=O)c2c(cnn2C(C)C)C3)cc(-c2ccc(C(=O)O)cc2)n1 [Form 1 of Compound A, 4-(4-(1-isopropyl-7-oxo-1,4,6,7-tetrahydrospiro[indazole-5,4′-piperidine]-1′-carbonyl)-6-methoxypyridin-2-yl)benzoic acid anhydrous tris salt] |  |  |  |  |  |  |  |  | < 0.2 |  | 
3 | CCOc1cccnc1Oc1cncc(-c2ncc(C(=O)N[C@H]3CCOC3)cn2)c1 [Compound D, (S)-2-(5-((3-ethoxypyridin-2-yl)oxy)pyridin-3-yl)-N-(tetrahydrofuran-3-yl)pyrimidine-5-carboxamide] | 30% | 25% | reduced hepatic αSMA and COL1A1 gene expression | reduced hepatic αSMA and COL1A1 gene expression | reduced SREBP-1 nuclear localization | decreased expression of all of the lipogenic genes |  |  |  | 35% | 20%
4 | COc1cc(C(=O)N2CCC3(CC2)CC(=O)c2c(cnn2C(C)C)C3)cc(-c2ccc(C(=O)O)cc2)n1 [Form 2 of Compound A] |  |  |  |  |  |  |  |  | > 0.2 |  | 
